Assay: WST-1 assay of EGCG oxidation delay by aptamer
Assay type: physicochemical
Details: for comparison of EGCG oxidation delay effect of aptamer K4 and aptamer K5: 20 μM aptamer, 500 μM EGCG, 30 minutes, WST-1 assay (FIG. 5); for concentration dependence of EGCG oxidation delay (reduction of WST-1 delayed): 5, 10 and 20 uM aptamer with EGCG, WST-1 assay (FIGS. 3 and 4); for oxidation of EGCG delayed: at 20 uM aptamer, 500 mM EGCG (so in the source), room temperature 30 minutes, WST-1, 440 nm absorbance measured for 16 hours (FIG. 3, FIG. 4)
Protocol: FIG. 1 is a graph showing the effect of delaying EGCG oxidation in aptamer K1 (SEQ ID NO: 1) to K9 (SEQ ID NO: 9) of the present invention. Nine types of aptamer K from aptamer K1 to aptamer K9 that bind to EGCG were prepared in the same manner as described above. After 20 μM aptamer K1 to K9 and 500 μM EGCG were reacted for 30 minutes, respectively, WST-1 assay was performed. The degree of delaying EGCG oxidation of each aptamer K was compared,
The aptamer (aptamers of SEQ ID NOs: 1 to 9) of the present invention reacting specifically with the EGCG obtained through the SELEX was dissolved in a folding buffer (1 mM MgCl2 in PBS) and then dissolved at 95° C.
After reacting 500 uM EGCG and one of the prepared 20 μM aptamers K1 to K9 and for 30 minutes, WST-1 assay was performed. The degree of EGCG oxidation delay of each aptamer K was compared.
500 mM EGCG and 5, 10, and 20 uM of the prepared aptamer K4 were reacted at room temperature for 30 minutes, respectively, and then WST-1 assay was performed. Prepared sample and WST-1([…]) was reacted to measure the formazan produced and with the plate reader, 440 nm absorbance was measured for 16 hours.
The aptamer K5 (aptamer of SEQ ID NO: 5) that specifically reacts with EGCG obtained through the SELEX was prepared in the same manner as described above and was tested for the effect of delaying EGCG oxidation.
Aptamers K4 and K5 binding to the EGCG were prepared in the same manner as described above. 20 μM aptamer K4, or aptamer K5, and 500 μM EGCG were reacted for 30 minutes, respectively, followed by WST-1 assay. It was confirmed that the EGCG oxidation delay effect of 20 μM aptamer K4 and aptamer K5 was similar (FIG. 5).

| Substance | comparison of EGCG oxidation delay effect of aptamer K4 and aptamer K5 | concentration dependence of EGCG oxidation delay (reduction of WST-1 delayed) | oxidation of EGCG delayed | concentration dependence of EGCG oxidation delay (reduction of WST-1 delayed) (listed as 1(5)) |
| --- | --- | --- | --- | --- |
| aptamer K4: DNA aptamer binding EGCG, 30 mer: CGACGACAGGAGGTGCGGCCCCGGCAGACC (DNA, backbone and methylation of C not given here) | similar | delayed (about 33% at 20 uM) depending on the concentration | about 33% | – |
| aptamer K5: DNA aptamer binding EGCG, 29 mer: ACGCATGCCGGGCGCGCTCCCTGTCGTCC (DNA, backbone and methylation of C not given here) | similar | delayed (about 33% at 20 uM) depending on the concentration | about 33% | delayed depending on the concentration |

From patent US20220002728A1, “METHOD FOR PREVENTING OXIDATION OF POLYPHENOL BY MEANS OF APTAMER, MATERIAL THEREOF, AND USE THEREOF” (Nexmos Co., LTD, priority 2018, published 2022)
